Where two headings read alike, the source gives them in different places.
Experiments:
CD/UPRT-expressing cells = assay type: cell-based; settings: human
Method: FIG. 2a-b. Flura-tagging has minimal cytotoxicity. FIG. 2a—Effect of Flura-tagging on stress granule formation. MDA231 cells were treated with 5-FC for the indicated times, and the formation of stress granules was detected by G3BP immunostaining. Control cells were either treated with water or sodium arsenite (Arsenite) for one hour. Arrows indicate stress granules (n=3). Scale bar=20 μM. FIG. 2b—Effect of Flura-tagging on transcription. RNA expression in control cells was compared to CD/UPRT-expressing cells treated with the indicated concentrations of 5-FC for 4 h or 12 h. Each dot represents a gene, with the outer/lighter gray dots indicating genes showing more than 2-fold differential expression, as determined by DESeq2 (n=2). The dotted line represents the four-fold cutoff mark.
For a more sensitive analysis of potential alterations caused by Flura-tagging, we investigated the transcriptional changes occurring under these experimental conditions. We compared the transcriptome of cells treated with two different concentrations of 5-FC (50 μM and 250 μM) at two different time points (4 h and 12 h) with that of control cells, using RNA-seq. […] This number increased to 190, 1325 and 1965 genes in cells treated with 250 μM 5-FC for 4 h, 50 μM 5-FC for 12 h, and 250 μM 5-FC for 12 h, respectively (FIG. 2b). Moreover, a majority of these differences in gene expression were within a four-fold range (FIG. 2b).
RNA-seq library preparation. Total RNA was purified using Qiagen RNeasy Mini Kit. Quality and quantity was checked by Agilent […]. 10 ng RNA per sample was used for library construction with Sample Prep Kit v2 (Illumina) according to manufacturer's instructions. Libraries were multiplex sequenced libraries on a Hiseq2500 platform, and more than 25 million raw paired-end reads were generated for each sample.
Reads were quality checked using FastQC v0.11.5 and mapped to a human (hg19) or hybrid human-mouse (hg19-mm10) genome with STAR2.5.2b (22) using standard settings for paired reads. Uniquely mapped reads were assigned to annotated genes with HTSeq v0.6.1p1 (23) with default settings. Read counts were normalized by library size, and differential gene expression analysis based on a negative binomial distribution was performed using DESeq2 v3.4 (24). In general, thresholds for differential expression were set as follows: adjusted p-value<0.05, fold change >2.0 or <0.5, and average normalized read count >10. Genes were considered detectable in the immunoprecipitation samples with a normalized read count >100. Gene set enrichment analysis was performed using GSVA v3.4 (25) and previously curated gene sets (26): HALLMARK_TGF_BETA_SIGNALING, HALLMARK_HEDGEHOG_SIGNALING, HALLMARK_WNT_BETA_CATENIN_SIGNALING, HALLMARK_PI3_K_AKT_MTOR_SIGNALING, HALLMARK_NOTCH_SIGNALING, HALLMARK_KRAS_SIGNALING_UP, CORDENONSI_YAP_CONSERVED_SIGNATURE, HALLMARK_IL6_JAK_STAT3_SIGNALING.

[1] = test system: MDA231 cells expressing CD/UPRT in mouse lungs; assay: Flura-seq of lung micrometastases, reads aligned to hybrid human-mouse genome; assay type: in vivo
Method: FIG. 3 a-g. Flura-tagging of mRNA in vivo. FIG. 3a—Schematic diagram of lung colonization xenograft assay used for evaluation of Flura-tagging/Flura-seq. Athymic mice were injected through the tail vein with 50,000 MDA231 cells expressing CD/UPRT and GFP-luciferase. Upon the development of detectable bioluminescent lung metastases (4 weeks), mice were treated with doxycycline to induce CD/UPRT expression and injected with 5-FC. Lungs were harvested, and Flura-tagged mRNAs were immunopurified. FIG. 3b—Comparison of signal-to-noise ratio of Flura-tagging and TU-tagging in vivo. Mice were injected with either 5-FC or TU, the Flura-tagged or TU-tagged mRNAs were purified 12 h post injection, and the relative fold enrichment of representative human housekeeping genes relative to representative murine housekeeping genes (mHPRT1, mLDH1, mPGK1 and mGAPDH), normalized to their corresponding unpurified inputs, were measured by RT-PCR (n=5, ±S.E.). FIG. 3c—Quantification of the number of human cells in the mouse lungs used for Flura-tagging. Half of the mouse lungs used for Flura-tagging in FIG. 3b was dissociated into single cells, and the number of RFP+ cells was quantified using flow cytometry. The total number of MDA231 cells per lung was estimated based on an assumption of 1.5×10^8 cells per mouse lung (20) (n=5). […] RNA reads were aligned to a hybrid genome containing the human and mouse genomes. […]

Structure (SMILES): Nc1nc(=O)[nH]cc1F [5-FC, 5-fluorocytosine]
- genes with more than 4-fold difference (CD/UPRT-expressing cells; 4 h, 50 μM): 10 genes
- genes with statistically significant differences in expression vs control cells (CD/UPRT-expressing cells; 4 h, 50 μM): 113 genes
- genes with more than 4-fold difference (CD/UPRT-expressing cells; 4 h, 250 μM): 15 genes
- genes with statistically significant differences in expression vs control cells (CD/UPRT-expressing cells; 4 h, 250 μM): 190 genes
- genes with more than 4-fold difference (CD/UPRT-expressing cells; 12 h, 50 μM): 102 genes
- genes with statistically significant differences in expression vs control cells (CD/UPRT-expressing cells; 12 h, 50 μM): 1325 genes
- genes with more than 4-fold difference (CD/UPRT-expressing cells; 12 h, 250 μM): 182 genes
- genes with statistically significant differences in expression vs control cells (CD/UPRT-expressing cells; 12 h, 250 μM): 1965 genes
- aligned reads mapped to human genome ([1]; mice treated for 4 h): approximately 53%
- aligned reads mapped to human genome ([1]; mice treated for 12 h): 74%

From patent publication US20200032249A1, “LABELING, ISOLATION, & ANALYSIS OF RNA FROM RARE CELL POPULATIONS” (priority 2017, published 2020)
